Results: patent US20150141336A1, “Pancreatic Peptide Compounds and Use” (Novo Nordisk A/S, priority 2012, published 2015)
Numbered stars: 1 amine (or outer) side, 2 acyl side, 3 side chain; on linkers, the order of the positions; unused ones are H or OH. Side chains are listed from the residue outwards. Peptide text beside a SMILES is read from it. * marks the point of attachment. C18 diacid = O=C(O)CCCCCCCCCCCCCCCCC(=O)*; γGlu = O=C(O)[C@H](CCC(=O)[*:2])N[*:1]; AEEA = NCCOCCOCC(=O)O

experiment: Assay (II) PK i.v. minipig, in vivo half-life; set-up: species or system Göttingen mini-pigs; settings: male, Göttingen, minipig, iv, Half-life minipig, Assay (II)
Protocol: An assay useful for measuring the pharmacokinetic (PK) profile of the PP peptide is the following mini-pig PK assay.
Five male Göttingen mini-pigs weighing approximately 18 to 22 kg from Ellegaard Göttingen Minipigs NS, Denmark are included in the study. The mini-pigs have two central venous catheters inserted which are used for intra venous (i.v.) dosing and blood sampling. The test compound is dissolved in 50 mM K2HPO4, 0.05% tween 80, pH=8.0 to a concentration of 180 nmol/ml. For comparison a control compound, such as human PP(1-36), may be administered. The pigs are dosed with 6 nmol test compound/kg body weight. Blood samples are taken at the following time points: pre-dose, 30 minutes, 1, 2, 4, 8, 24, 48, 72, 96, 120, 168 and 240 hours post dosing. The blood samples were collected into test tubes containing EDTA buffer for stabilization and kept on ice for max. 20 minutes before centrifugation. The centrifugation procedure to separate plasma may be: 4° C., approx. 2500 g for 10 minutes. Plasma is collected and immediately transferred to Micronic tubes stored at −20° C. until assayed.
The test compounds were assayed in plasma by Turbulent Flow Chromatography coupled to Liquid Chromatography with subsequent Tandem Mass Spectrometric Detection (TFC/LC/MS/MS). Positive mode ionization and Multiple Reaction Monitoring (MRM) of a multiple protonated species fragmented to a singly charged ion was employed for selectivity. The selectivity of the method allows multiple compounds to be quantified in one sample.
The concentrations of the test compound in samples of unknown concentration were calculated using the peak area as a function of amount. Calibration graphs based on plasma samples spiked with the analyte were constructed by regression analysis. Typical dynamic range for standard assay was 1-2000 nmol/I. The method performance was assured by co-assaying quality control (QC) samples in duplicate at three concentration levels.
Stock and working solutions of analytes were prepared in plasma and incubated by 37° C. for 1 hour.
Sample Preparation: 40.0 μl EDTA-plasma was added 160 μl 50% methanol, 1% formic acid, then vortexed and centrifuged at 16457 g at 4° C. for 20 minutes. The supernatant was transferred to a 96 well plate, plates incubated with 0.4% BSA, 37° C. for ½ hour. Injection volume was 25 μl.
The analysis was carried out on a Sciex API 3000 mass spectrometer (MDS/Sciex, Concord, ON, Canada) using a TurbolonSpray interface. The TFC/LC system consisted of two Flux Rheos 2000 quaternary pumps, a Cohesive VIM module (Cohesive Technologies, Franklin, Mass., USA) and a CTC LC/PAL auto sampler (CTC Analytics, Zingen, Switzerland). The centrifuge employed was a HettichMikro 22R (A. Hettich, Tuttlingen, Germany). For sample clean up a TurboFlow C8 column (0.5×50 mm) (Cohesive Technologies/Thermofisher) was used and the LC separation was done on a Proteo 4 μm column (2.0×50 mm) (Phenomenex, Torrance, Calif., USA). Eluents were isocratic and gradient combinations of methanol, acetonitril, Milli-Q water and formic acid.
Non-compartmental analysis (NCA): Plasma concentration-time profiles are analyzed by non-compartmental pharmacokinetics analysis (NCA) using WinNonlin Professional 5.0 (Pharsight Inc., Mountain View, Calif., USA). NCA is performed using the individual plasma concentration-time profiles from each animal.

half-life | SMILES
69 h | CSCC[C@H](NC(=O)[C@H](CCC(N)=O)NC(=O)[C@H](CCC(=O)O)NC(=O)[C@@H]1CCCN1C(=O)[C@@H](NC(=O)[C@H](C)NC(=O)[C@H](CC(N)=O)NC(=O)[C@H](CC(=O)O)NC(=O)CNC(=O)[C@@H]1CCCN1C(=O)[C@H](Cc1ccc(O)cc1)NC(=O)[C@@H](NC(=O)[C@@H]1CCCN1C(=O)[C@H](CCC(=O)O)NC(=O)[C@@H](N)CC(C)C)C(C)C)[C@@H](C)O)C(=O)N[C@@H](C)C(=O)N[C@@H](CCC(N)=O)C(=O)N[C@@H](Cc1ccc(O)cc1)C(=O)N[C@@H](C)C(=O)N[C@@H](C)C(=O)N[C@@H](CC(=O)O)C(=O)N[C@@H](CC(C)C)C(=O)N[C@@H](CCCNC(=N)N)C(=O)N[C@@H](CCCNC(=N)N)C(=O)N[C@@H](Cc1ccc(O)cc1)C(=O)N[C@@H](CCCCNC(=O)COCCOCCNC(=O)COCCOCCNC(=O)CC[C@H](NC(=O)CCCCCCCCCCCCCCCCC(=O)O)C(=O)O)C(=O)N[C@@H](CC(N)=O)C(=O)N[C@@H](CCSC)C(=O)N[C@@H](CC(C)C)C(=O)N[C@H](C(=O)N[C@@H](CCCNC(=N)N)C(=O)N1CCC[C@H]1C(=O)N[C@@H](CCCNC(=N)N)C(=O)N[C@@H](Cc1ccc(O)cc1)C(N)=O)[C@@H](C)O [Compound AN] (H-LEPVYPGDNATPEQMAQYAADLRRYK([AEEA-AEEA-γGlu-C18 diacid])NMLTRPRY-NH2; N-terminus and C-terminus assumed)
99 h | CC[C@H](C)[C@H](NC(=O)[C@H](Cc1ccc(O)cc1)NC(=O)[C@H](CCCNC(=N)N)NC(=O)[C@H](CCCNC(=N)N)NC(=O)[C@H](CC(C)C)NC(=O)[C@H](CC(=O)O)NC(=O)[C@H](C)NC(=O)[C@H](C)NC(=O)[C@H](Cc1ccc(O)cc1)NC(=O)[C@H](CCC(N)=O)NC(=O)[C@H](C)NC(=O)[C@H](CCSC)NC(=O)[C@H](CCC(N)=O)NC(=O)[C@H](CCC(=O)O)NC(=O)[C@@H]1CCCN1C(=O)[C@@H](NC(=O)[C@H](C)NC(=O)[C@H](CC(N)=O)NC(=O)[C@H](CC(=O)O)NC(=O)CNC(=O)[C@@H]1CCCN1C(=O)[C@H](Cc1ccc(O)cc1)NC(=O)[C@@H](NC(=O)[C@@H]1CCCN1C(=O)[C@H](CCC(=O)O)NC(=O)[C@H](CC(C)C)NC(=O)[C@@H]1CCCN1)C(C)C)[C@@H](C)O)C(=O)N[C@@H](CC(N)=O)C(=O)N[C@@H](CCSC)C(=O)N[C@@H](CC(C)C)C(=O)N[C@H](C(=O)N[C@@H](CCCNC(=N)N)C(=O)N[C@@H](CCCCNC(=O)COCCOCCNC(=O)COCCOCCNC(=O)CC[C@H](NC(=O)CCCCCCCCCCCCCCCCC(=O)O)C(=O)O)C(=O)N[C@@H](CCCNC(=N)N)C(=O)N[C@@H](Cc1ccc(O)cc1)C(N)=O)[C@@H](C)O [Compound A] (H-PLEPVYPGDNATPEQMAQYAADLRRYINMLTRK([AEEA-AEEA-γGlu-C18 diacid])RY-NH2; N-terminus and C-terminus assumed)
30 h | CC[C@H](C)[C@H](NC(=O)[C@H](Cc1ccc(O)cc1)NC(=O)[C@H](CCCNC(=N)N)NC(=O)[C@H](CCCNC(=N)N)NC(=O)[C@H](CC(C)C)NC(=O)[C@H](CCCCNC(=O)COCCOCCNC(=O)COCCOCCNC(=O)CC[C@H](NC(=O)CCCCCCCCCCCCCCCCC(=O)O)C(=O)O)NC(=O)[C@H](C)NC(=O)[C@H](C)NC(=O)[C@H](Cc1ccc(O)cc1)NC(=O)[C@H](CCC(N)=O)NC(=O)[C@H](C)NC(=O)[C@H](CCSC)NC(=O)[C@H](CCC(N)=O)NC(=O)[C@H](CCC(=O)O)NC(=O)[C@@H]1CCCN1C(=O)[C@@H](NC(=O)[C@H](C)NC(=O)[C@H](CC(N)=O)NC(=O)[C@H](CC(=O)O)NC(=O)CNC(=O)[C@@H]1CCCN1C(=O)[C@H](Cc1ccc(O)cc1)NC(=O)[C@@H](NC(=O)[C@@H]1CCCN1C(=O)[C@H](CCC(=O)O)NC(=O)[C@H](CC(C)C)NC(=O)[C@@H]1CCCN1)C(C)C)[C@@H](C)O)C(=O)N[C@@H](CC(N)=O)C(=O)N[C@@H](CCSC)C(=O)N[C@@H](CC(C)C)C(=O)N[C@H](C(=O)N[C@@H](CCCNC(=N)N)C(=O)N1CCC[C@H]1C(=O)N[C@@H](CCCNC(=N)N)C(=O)N[C@@H](Cc1ccc(O)cc1)C(N)=O)[C@@H](C)O [Compound K] (H-PLEPVYPGDNATPEQMAQYAAK([AEEA-AEEA-γGlu-C18 diacid])LRRYINMLTRPRY-NH2; N-terminus and C-terminus assumed)
10 h | CC[C@H](C)[C@H](NC(=O)[C@H](Cc1ccc(O)cc1)NC(=O)[C@H](CCCNC(=N)N)NC(=O)[C@H](CCCNC(=N)N)NC(=O)[C@H](CC(C)C)NC(=O)[C@H](CC(=O)O)NC(=O)[C@H](C)NC(=O)[C@H](C)NC(=O)[C@H](Cc1ccc(O)cc1)NC(=O)[C@H](CCC(N)=O)NC(=O)[C@H](C)NC(=O)[C@H](CCSC)NC(=O)[C@H](CCC(N)=O)NC(=O)[C@H](CCC(=O)O)NC(=O)[C@@H]1CCCN1C(=O)[C@@H](NC(=O)[C@H](C)NC(=O)[C@H](CC(N)=O)NC(=O)[C@H](CC(=O)O)NC(=O)CNC(=O)[C@H](CCCCNC(=O)COCCOCCNC(=O)COCCOCCNC(=O)CC[C@H](NC(=O)CCCCCCCCCCCCCCCCC(=O)O)C(=O)O)NC(=O)[C@H](Cc1ccc(O)cc1)NC(=O)[C@@H](NC(=O)[C@@H]1CCCN1C(=O)[C@H](CCC(=O)O)NC(=O)[C@@H](N)CC(C)C)C(C)C)[C@@H](C)O)C(=O)N[C@@H](CC(N)=O)C(=O)N[C@@H](CCSC)C(=O)N[C@@H](CC(C)C)C(=O)N[C@H](C(=O)N[C@@H](CCCNC(=N)N)C(=O)N1CCC[C@H]1C(=O)N[C@@H](CCCNC(=N)N)C(=O)N[C@@H](Cc1ccc(O)cc1)C(N)=O)[C@@H](C)O [Compound BH]
94 h | CC[C@H](C)[C@H](NC(=O)[C@H](Cc1ccc(O)cc1)NC(=O)[C@H](CCCNC(=N)N)NC(=O)[C@H](CCCNC(=N)N)NC(=O)[C@H](CC(C)C)NC(=O)[C@H](CC(=O)O)NC(=O)[C@H](C)NC(=O)[C@H](C)NC(=O)[C@H](Cc1ccc(O)cc1)NC(=O)[C@H](CCC(N)=O)NC(=O)[C@H](C)NC(=O)[C@H](CCSC)NC(=O)[C@H](CCC(N)=O)NC(=O)[C@H](CCC(=O)O)NC(=O)[C@@H]1CCCN1C(=O)[C@@H](NC(=O)[C@H](C)NC(=O)[C@H](CC(N)=O)NC(=O)[C@H](CC(=O)O)NC(=O)CNC(=O)[C@@H]1CCCN1C(=O)[C@H](Cc1ccc(O)cc1)NC(=O)[C@@H](NC(=O)[C@@H]1CCCN1C(=O)[C@H](CCC(=O)O)NC(=O)[C@H](CC(C)C)NC(=O)[C@@H]1CCCN1)C(C)C)[C@@H](C)O)C(=O)N[C@@H](CC(N)=O)C(=O)N[C@@H](CCSC)C(=O)N[C@@H](CCCCNC(=O)COCCOCCNC(=O)COCCOCCNC(=O)CC[C@H](NC(=O)CCCCCCCCCCCCCCCCC(=O)O)C(=O)O)C(=O)N[C@H](C(=O)N[C@@H](CCCNC(=N)N)C(=O)N1CCC[C@H]1C(=O)N[C@@H](CCCNC(=N)N)C(=O)N[C@@H](Cc1ccc(O)cc1)C(N)=O)[C@@H](C)O [Compound C] (H-PLEPVYPGDNATPEQMAQYAADLRRYINMK([AEEA-AEEA-γGlu-C18 diacid])TRPRY-NH2; N-terminus and C-terminus assumed)
44 h | CC[C@H](C)[C@H](NC(=O)[C@H](Cc1ccc(O)cc1)NC(=O)[C@H](CCCNC(=N)N)NC(=O)[C@H](CCCNC(=N)N)NC(=O)[C@H](CC(C)C)NC(=O)[C@H](CC(=O)O)NC(=O)[C@H](C)NC(=O)[C@H](C)NC(=O)[C@H](Cc1ccc(O)cc1)NC(=O)[C@H](CCC(N)=O)NC(=O)[C@H](C)NC(=O)[C@H](CCSC)NC(=O)[C@H](CCC(N)=O)NC(=O)[C@H](CCC(=O)O)NC(=O)[C@@H]1CCCN1C(=O)[C@@H](NC(=O)[C@H](C)NC(=O)[C@H](CC(N)=O)NC(=O)[C@H](CC(=O)O)NC(=O)CNC(=O)[C@@H]1CCCN1C(=O)[C@H](Cc1ccc(O)cc1)NC(=O)[C@H](CCCCNC(=O)COCCOCCNC(=O)COCCOCCNC(=O)CC[C@H](NC(=O)CCCCCCCCCCCCCCCCC(=O)O)C(=O)O)NC(=O)[C@@H]1CCCN1C(=O)[C@H](CCC(=O)O)NC(=O)[C@H](CC(C)C)NC(=O)[C@@H]1CCCN1)[C@@H](C)O)C(=O)N[C@@H](CC(N)=O)C(=O)N[C@@H](CCSC)C(=O)N[C@@H](CC(C)C)C(=O)N[C@H](C(=O)N[C@@H](CCCNC(=N)N)C(=O)N1CCC[C@H]1C(=O)N[C@@H](CCCNC(=N)N)C(=O)N[C@@H](Cc1ccc(O)cc1)C(N)=O)[C@@H](C)O [Compound AB]
